According to patent US20140080869A1, “Methods for Treating HCV” (priority 2012, published 2014):
Read-outs that look alike come from different tables or passages of the source.

Columns and labels:
[1] = tested on: HCV genotype 1b-Con1 stable subgenomic replicon; test: microbe, parasite or virus in culture; conditions: Hepatitis C virus, read-out: Mean EC50 ± Std. Dev.
[2] = tested on: HCV replicon with NS5A genotype 2b L31V variant; test: Transient chimeric replicon assay, genotype 2b L31V; format: cell-based
From the text: (§1) Transiently replicating chimeric replicons containing NS5A from genotype 2-6 wild types or replicons containing variants within NS5A were constructed in the 1b-Con1 background. These replicons also contained a firefly luciferase reporter gene. Variants were introduced by site-directed mutagenesis using the Change-IT Multiple Mutation Site Directed Mutagenesis Kit (USB). After the mutagenesis was confirmed by sequence analysis, the plasmids were linearized with ScaI restriction enzyme. The TranscriptAid T7 High Yield Transcription Kit (Fermentas) was used to transcribe the HCV subgenomic RNA from the plasmids. The RNA was transfected via electroporation into a Huh-7 derived cell line as described (see Middleton et al. and Tripathi et al., supra) except that 3×10^6 cells were electroporated with 15 μg of template RNA and the 96 well plate was seeded with 7.5×10^3 cells per well. Four hours post-transfection, the wells from one plate were harvested for luciferase measurement. […] Luciferin solution (50 μl, Promega) was added to each well, and luciferase activity was measured with a Victor II luminometer (Perkin-Elmer). The percent inhibition of HCV RNA replication was calculated for each compound concentration and the EC50 value was calculated using nonlinear regression curve fitting to the 4-parameter logistic equation and GraphPad Prism 4 software.

[3] = tested on: HCV replicon with NS5A genotype 3a Y93H variant; test: Transient chimeric replicon assay, genotype 3a Y93H; format: cell-based; conditions: Hepatitis C virus
From the text: as §1

[4] = tested on: HCV replicon with NS5A from genotype 2b; conditions: read-out: Mean EC50 ± Std. Dev.
[5] = tested on: HCV replicon with NS5A from genotype 2a; conditions: read-out: Mean EC50 ± Std. Dev.
[6] = tested on: HCV replicon with NS5A genotype 6a wild type; test: microbe, parasite or virus in culture; format: cell-based; conditions: Hepatitis C virus, read-out: Average EC50
From the text: (§2) Transiently replicating chimeric replicons containing NS5A from genotype 2-6 wild types or replicons containing variants within NS5A were constructed in the 1b-Con1 background. These replicons also contained a firefly luciferase reporter gene. Variants were introduced by site-directed mutagenesis using the Change-IT Multiple Mutation Site Directed Mutagenesis Kit (USB). After the mutagenesis was confirmed by sequence analysis, the plasmids were linearized with ScaI restriction enzyme. The TranscriptAid T7 High Yield Transcription Kit (Fermentas) was used to transcribe the HCV subgenomic RNA from the plasmids. The RNA was transfected via electroporation into a Huh-7 derived cell line as described (see Middleton et al. and Tripathi et al., supra) except that 3×10^6 cells were electroporated with 15 μg of template RNA and the 96 well plate was seeded with 7.5×10^3 cells per well. Four hours post-transfection, the wells from one plate were harvested for luciferase measurement. This plate provided a measure of the amount of translatable input RNA, and therefore transfection efficiency. To the wells of the remaining plates, a half-log dilution series of the test compound in culture medium (0.5% DMSO final concentration) was added, and plates were incubated at 37° C., 5% CO2 in a humidified incubator for 4 days. After this period, the media was removed and the plates were washed with 100 μl phosphate-buffered saline per well. Luciferin solution (50 μl, Promega) was added to each well, and luciferase activity was measured with a Victor II luminometer (Perkin-Elmer). The percent inhibition of HCV RNA replication was calculated for each compound concentration and the EC50 value was calculated using nonlinear regression curve fitting to the 4-parameter logistic equation and GraphPad Prism 4 software.

[7] = tested on: HCV replicon with NS5A genotype 3a wild type; test: microbe, parasite or virus in culture; format: cell-based; conditions: Hepatitis C virus, read-out: Average EC50
From the text: as §2

[8] = tested on: HCV replicon with NS5A genotype 2a wild type; test: microbe, parasite or virus in culture; format: cell-based; conditions: Hepatitis C virus, read-out: Average EC50
From the text: as §2

[9] = tested on: HCV replicon with NS5A from genotype 2a; test: microbe, parasite or virus in culture; conditions: Hepatitis C virus, read-out: Mean EC50 ± Std. Dev.
[10] = tested on: HCV replicon with NS5A from genotype 3a; conditions: read-out: Mean EC50 ± Std. Dev.
[11] = tested on: HCV replicon with NS5A genotype 2b wild type; test: Transient chimeric replicon assay, genotype 2b WT; format: cell-based; conditions: Hepatitis C virus
From the text: as §1

[12] = tested on: HCV replicon with NS5A from genotype 6a; conditions: read-out: Mean EC50 ± Std. Dev.
[13] = tested on: HCV replicon with NS5A from genotype 2b; test: microbe, parasite or virus in culture; conditions: Hepatitis C virus, read-out: Mean EC50 ± Std. Dev.
[14] = tested on: HCV replicon with NS5A genotype 5a L31V variant; test: Transient chimeric replicon assay, genotype 5a L31V; format: cell-based; conditions: Hepatitis C virus
From the text: as §1

[15] = tested on: HCV replicon with NS5A genotype 3a M28T variant; test: Transient chimeric replicon assay, genotype 3a M28T; format: cell-based
From the text: as §1

[16] = tested on: HCV replicon with NS5A genotype 5a wild type; test: Transient chimeric replicon assay, genotype 5a WT; format: cell-based; conditions: Hepatitis C virus
From the text: as §1

[17] = tested on: HCV replicon with NS5A genotype 6a T58A variant; test: Transient chimeric replicon assay, genotype 6a T58A; format: cell-based
From the text: as §1

[18] = tested on: HCV replicon with NS5A genotype 2a T24A variant; test: Transient chimeric replicon assay, genotype 2a T24A; format: cell-based
From the text: as §1

[19] = tested on: HCV replicon with NS5A genotype 5a L31F variant; test: Transient chimeric replicon assay, genotype 5a L31F; format: cell-based
From the text: as §1

[20] = tested on: HCV replicon with NS5A from genotype 3a; test: microbe, parasite or virus in culture; conditions: Hepatitis C virus, read-out: Mean EC50 ± Std. Dev.
[21] = tested on: HCV replicon with NS5A genotype 6a T58N variant; test: Transient chimeric replicon assay, genotype 6a T58N; format: cell-based
From the text: as §1

[22] = tested on: HCV replicon with NS5A from genotype 6a; test: microbe, parasite or virus in culture; conditions: Hepatitis C virus, read-out: Mean EC50 ± Std. Dev.
[23] = tested on: HCV genotype 1b-Con1 stable subgenomic replicon; conditions: read-out: Mean EC50 ± Std. Dev.

Q: What does the source list for `COC(=O)N[C@H](C(=O)N1CCC[C@H]1c1nc2cc([C@H]3CC[C@H](c4ccc5[nH]c([C@@H]6CCCN6C(=O)[C@@H](NC(=O)OC)C(C)C)nc5c4)N3c3cc(F)c(N4CCC(c5ccccc5)CC4)c(F)c3)ccc2[nH]1)C(C)C` [Compound 1, methyl {(2S)-1-[(2S)-2-{5-[(2R,5R)-1-[3,5-difluoro-4-(4-phenylpiperidin-1-yl)phenyl]-5-{2-[(2S)-1-{(2S)-2-[(methoxycarbonyl)amino]-3-methylbutanoyl}pyrrolidin-2-yl]-1H-benzimidazol-5-yl}pyrrolidin-2-yl]-1H-benzimidazol-2-yl}pyrrolidin-1-yl]-3-methyl-1-oxobutan-2-yl}carbamate]?
A: EC50 [1]: < 10 pM; EC50 [2]: 3 pM; EC50 ([2]; Hepatitis C virus): < 5 pM; EC50 [3]: 273 pM; EC50 [4]: 6.4 ± 3.1 pM; EC50 [5]: 9 ± 4.6 pM; EC50 [6]: 2.4 pM; EC50 [7]: 2.9 pM; EC50 [8]: 3 pM; EC50 [9]: < 10 pM; EC50 [10]: 6.4 ± 2.8 pM; EC50 [11]: 1.8 pM; EC50 [12]: 8.7 ± 5.5 pM; EC50 [13]: < 10 pM; EC50 [14]: < 5 pM; EC50 [15]: 4.6 pM; EC50 ([15]; Hepatitis C virus): < 5 pM; EC50 [16]: 1.1 pM; EC50 [17]: 2.5 pM; EC50 ([17]; Hepatitis C virus): < 5 pM; EC50 [18]: 3 pM; EC50 ([18]; Hepatitis C virus): < 5 pM; EC50 [19]: 3.3 pM; EC50 ([19]; Hepatitis C virus): < 5 pM; EC50 [20]: < 10 pM; EC50 [21]: 3.2 pM; EC50 ([21]; Hepatitis C virus): < 5 pM; EC50 [22]: < 10 pM; EC50 [23]: 5.1 ± 1.8 pM
